{
  "source": "patent US6978572B1",
  "about": "“Method and device for attracting insects” (Colorado State University Research Foundation, priority 1998, dated 2005)",
  "key": {"[1]": {"tested_on": "Reticulitermes virginicus", "experiment": "T-tube choice-test behavioral bioassay with CO2", "type": "in vivo", "details": "versus ambient air", "protocol": "(§1) Behavioral bioassay apparatus: The choice-test bioassay apparatus was constructed from a glass T-tube (5 mm inside diameter, 5 mm stem, with each branch 4.5 cm long). Each branch of the ‘T’ was bent downward (2.5 cm from the junction of the ‘T’) at a 45° angle to form a pitfall trap. A 5 mm NMR cap (cat. no. 100-0050, Drummond Scientific, Broomall, Pa.) with a 1 mm pinhole in it was firmly pushed over the end of each bent branch. A 25 cm length of Teflon tubing (0.8 mm inside diameter) was inserted 3 mm into the hole in each NMR cap and the other end of the tubing was connected to a 35 ml polyethylene syringe (cat. no. 106-0490, Sherwood Medical, St. Louis, Mo.). The two 35-ml syringes were connected to a syringe pump which was adjusted to provide an airflow of 1 ml per min into each choice arm of the bioassay apparatus. Mixtures of CO2 and ambient air were tested to determine the termite response to a range of CO2 concentrations. A 35-ml syringe was rinsed with distilled water and partially filled (5 ml) with ambient air. Different amounts of 100% CO2 were obtained with a smaller glass syringe from a tank and injected into the 35-ml syringe. Ambient air was then drawn into the 35-ml syringe to fill it and mix the gases by turbulence as the syringe was loaded. A 2nd 35-ml polyethylene syringe was filled with ambient air for a control. Measurements with GC-MS-SIM confirmed that the CO2 concentrations reached equilibrium after 15 min. The CO2 concentration of the syringes was determined by using GC-MS-SIM analysis (see below) before each bioassay. Bioassays were conducted with both Reticulitermes tibialis and Reticulitermes flavipes for 1, 2, 5, 10, 20, 50 and 500 mmol per mol concentrations of CO2 and with Reticulitermes virginicus for 5, 10, 20, and 50 mmol per mol. Procedure: For bioassays, termite workers were collected from plastic tubs by using a camel's hair brush and were placed into a holding container constructed from a 3 cm length of Teflon tubing (8 mm inside diameter). The container was plugged at one end with a NMR cap with two holes (1 mm) drilled in the bottom. A second NMR cap with a 4 mm hole was inserted backwards into the other end of the Teflon tube. The end of the NMR cap was sealed with a small square of cellophane held in place with a plastic tube (a piece of plastic soda straw) that fit snugly over the open end. Termites (5 workers) were placed in the container and the top was sealed. The container was placed horizontally and left undisturbed for 20 min. The T-tube apparatus was assembled and clamped horizontally on top of a block of foam rubber (12 by 12 cm) with a wire bent into a U-shape. The syringe pump was turned on, and after 3 min of pumping, the cellophane seal was removed from the holding container and the entrance to the holding container was gently connected to the central arm of the T-tube, allowing termites to crawl out and enter the apparatus. Bioassays were conducted for 15 min, after which the number of termites in each pitfall was recorded. CO2 measurements: Gas chromatography-mass spectrometry in selected ion monitoring mode (GC-MS-SIM) at m/e 44 was used to determine CO2 concentrations. A Hewlett-Packard Series II 5890 gas chromatograph interfaced with a Hewlett-Packard 5971 mass selective detector was used with a methyl silicone capillary column (30 m×0.32 mm inside diameter, RSL-150, Alltech, Deerfield, Ill.). […]"}, "Reticulitermes tibialis": {"tested_on": "Reticulitermes tibialis", "experiment": "T-tube choice-test behavioral bioassay with CO2", "type": "in vivo", "protocol": "as §1"}, "Reticulitermes flavipes": {"tested_on": "Reticulitermes flavipes", "experiment": "T-tube choice-test behavioral bioassay with CO2", "type": "in vivo", "details": "versus ambient air", "protocol": "as §1"}, "[2]": {"tested_on": "western corn root worm larvae", "details": "literature reports; cited from earlier work"}, "wireworm larvae": {"tested_on": "wireworm larvae", "details": "Doane et al. (1975); cited from earlier work"}, "[3]": {"tested_on": "plant-parasitic nematodes", "details": "cited from earlier work"}, "[4]": {"tested_on": "western corn root worm larvae"}},
  "note": "Values joined by “and” are separate entries in the source; they are usually repeats but may differ in a detail not shown here. Identical values can stand only once. “Also recorded” adds a separate entry of the source. Like-named read-outs stand apart in the source and are kept apart here.",
  "data": [
    {"smiles": "O=C=O", "note": "[CO2, Carbon dioxide]", "values": [
      {"measurement": "CO2 concentration of best attraction", "setting": "[1]", "result": 10, "unit": "mmol per mol"},
      {"measurement": "Termites choosing CO2 side versus control side", "setting": "Reticulitermes tibialis; 5 mmol/mol CO2 versus ambient air", "result": "significantly greater than the number that moved to the control side; also recorded: significantly more often; also recorded: Significantly more termites (p<0.05) were attracted to the side containing 5 mmol/mol CO2 than to the control side"},
      {"measurement": "CO2 concentration of best attraction", "setting": "Reticulitermes tibialis; versus ambient air", "result": 5, "unit": "mmol per mol"},
      {"measurement": "CO2 concentrations to which termites were attracted", "setting": "Reticulitermes tibialis; versus ambient air, 5 workers, 15 min", "result": "10 mmol per mol and 20 mmol per mol"},
      {"measurement": "CO2 concentration of best attraction", "setting": "Reticulitermes flavipes", "result": 10, "unit": "mmol per mol"},
      {"measurement": "Attraction of larvae reported in earlier publications", "setting": "[2]", "result": "highly attracted to CO2"},
      {"measurement": "Smallest CO2 difference to which larvae respond", "setting": "wireworm larvae", "result": 0.02, "unit": "%"},
      {"measurement": "CO2 threshold for nematode response", "setting": "[3]; higher baseline concentration (1.0%)", "result": 0.05, "unit": "%"},
      {"measurement": "CO2 threshold for nematode response", "setting": "[3]; low baseline levels of CO2 (0.1%)", "result": 0.01, "unit": "%"},
      {"measurement": "Selective response, attraction to higher CO2 concentration", "setting": "[4]; 0.125 mmol/mol difference at higher base concentrations", "result": "no difference in attraction was observed in any of the tests at higher concentrations"},
      {"measurement": "Larvae attracted to CO2 side versus control side", "setting": "[4]; 10 mmol/mol CO2 (10.43±0.18) versus ambient air, syringe sources", "result": "significantly more western corn root worm larvae (P<0.05) were attracted to the side containing 10 mmol/mol CO2"},
      {"measurement": "Selective response, attraction to higher CO2 concentration", "setting": "[4]; 1 versus 1.125 mmol/mol (actual 1.06±0.05 versus 1.18±0.05)", "result": "significantly greater attraction was observed to 1.125 mmol/mol than to 1 mmol/mol"},
      {"measurement": "Selective response, attraction to higher CO2 concentration", "setting": "[4]; 1 versus 1.25 mmol/mol", "result": "more attracted to the higher CO2 concentration"},
      {"measurement": "Selective response, attraction to higher CO2 concentration", "setting": "[4]; 1 versus 1.50 mmol/mol", "result": "Significantly more larvae were attracted"},
      {"measurement": "Selective response, attraction to higher CO2 concentration", "setting": "[4]; 2 versus 2.25 mmol/mol", "result": "more attracted to the higher CO2 concentration"},
      {"measurement": "Selective response, attraction to higher CO2 concentration", "setting": "[4]; 2 versus 2.50 mmol/mol", "result": "Significantly more larvae were attracted"},
      {"measurement": "Selective response, attraction to higher CO2 concentration", "setting": "[4]; 5 versus 5.25 mmol/mol", "result": "no difference in attraction was observed"},
      {"measurement": "Selective response, attraction to higher CO2 concentration", "setting": "[4]; 5 versus 5.50 mmol/mol", "result": "Significantly more larvae were attracted"},
      {"measurement": "Selective response, attraction to higher CO2 concentration", "setting": "[4]; 10 versus 10.25 mmol/mol", "result": "no difference in attraction was observed"},
      {"measurement": "Selective response, attraction to higher CO2 concentration", "setting": "[4]; 10 versus 10.50 mmol/mol", "result": "Significantly more larvae were attracted"},
      {"measurement": "Selective response, attraction to higher CO2 concentration", "setting": "[4]; 20 versus 20.25 mmol/mol", "result": "no difference in attraction was observed"},
      {"measurement": "Selective response, attraction to higher CO2 concentration", "setting": "[4]; 20 versus 20.50 mmol/mol", "result": "no difference in attraction was observed"},
      {"measurement": "Smallest difference between the 2 CO2 choices still attracting larvae to the higher concentration", "setting": "[4]; base level 1 mmol/mol", "result": 0.125, "unit": "mmol/mol"},
      {"measurement": "CO2 excess over control at which larvae were 1st attracted", "setting": "[4]; control contained 1, 2, 5, 10, and 20 mmol/mol CO2", "result": 12.5, "unit": "%"},
      {"measurement": "Lowest CO2 concentration significantly attractive to neonate larvae", "setting": "[4]; control side ambient air 0.99±0.02 mmol/mol", "result": "1.125±0.04", "unit": "mmol/mol"},
      {"measurement": "Highest concentration of CO2 to which larvae were attracted", "setting": "[4]; dose-response, syringe sources", "result": "100 mmol/mol and 85.6±1.20 mmol/mol"},
      {"measurement": "Most attractive (optimal) concentrations of CO2", "setting": "[4]; dose-response, syringe sources", "result": "2.51-4.20 mmol/mol and 2.51±0.13 mmol/mol and 4.20±0.21 mmol/mol"},
      {"measurement": "Lowest concentration of CO2 attractive to the larvae", "setting": "[4]; dose-response, syringe sources, control 0.91±0.03", "result": "1.34±0.05", "unit": "mmol/mol"}
    ]},
    {"smiles": "ClCCl", "note": "[dichloromethane, reference compound]", "values": [
      {"measurement": "Attraction of larvae reported in earlier publications", "setting": "[2]", "result": "attractive to Diabrotica larvae"}
    ]}
  ]
}
